{"source": "patent US20230017266A1", "about": "“Cyclooxygenase-2 Inhibition for the Treatment of SAA-high Asthma” (THE USA, AS REPRESENTED BY THE SECRETARY, DEPT. OF HEALTH …, priority 2019, published 2023)", "tested_on": "NF-κB p65", "assay": "Phosphorylation of NF-κB p65 serine 529 in monocytes stimulated with HDL+SAA1 (flow cytometry)", "format": "cell-based, human", "conditions": "A438079 10 μM for 2 h, then HDL+SAA1 15 min; CD45+/CD14+/CD16− monocytes", "procedure": "Phosphorylation of NF-κB p65. PBMCs isolated using Lymphoprep™ were resuspended in X-VIVO™ 15 serum-free hematopoietic cell medium (Lonza, Walkersville, Md.) and treated with the P2X7R antagonist, A438079 (10 ∝M), for 2 h prior to stimulation with HDL+SAA1 for 15 min^53. Subsequent cell processing was performed at 4° C. or on ice. Cells were washed with cold PBS, centrifuged at 300×g for 5 min, and reacted in a volume of 100 ∝l PBS for 15 min with the following antibodies; APC-Cy™7 mouse anti-human CD45 clone 2D1 (catalog #557833), FITC mouse anti-human CD14 clone M5E2 (catalog #555397), APC mouse anti-human CD16 clone B73.1 (catalog #561304), all form BD Biosciences (San Jose, Calif.) and cell viability dye (L34959, ThermoFisher Scientific, Frederick, Md.). […] Cells were washed with Phosflow Perm Buffer III and PBS, resuspended in PBS, and analyzed using a Fortessa analyzer equipped with 355, 407, 488, 532 and 640 nm LASER lines using FACS DIVA 8.0 software (BD Biosciences, San Jose, Calif.). […] Mean fluorescence intensity (MFI) was calculated and overlay histogram plots were generated to quantify phosphorylation of NF-κB p65 serine 529 among various treatment conditions.", "data": [{"smiles": "Clc1cccc(-c2nnnn2Cc2cccnc2)c1Cl", "note": "[A438079]", "values": [{"measurement": "HDL+SAA1-mediated phosphorylation of p65 NF-κB", "result": "attenuated"}]}]}
